Laboratory results taken from patent publication US20030233678A1, “Pre- and post-harvest inhibition of remobilisation of storage compounds” (Mogen International N.V., priority 1997, published 2003).

Test system: potato tuber pieces containing at least one active meristem (wild-type and tps)
Experiment: Sprouting of cut tuber pieces incubated on gibberellic acid solutions
Format: in vivo, Solanum tuberosum Var. Kardal
Settings: 1, 10 or 1000 ppm solution, 10 min incubation
Experimental: Pat-TPS plants (Var. […]) derived from tissue culture plants were grown in the phytochamber under 500 μmol quanta m-2 s-1 (16 h light, 20° C.; 8 h dark (15° C.)). Tubers were harvested after three months and stored in the cold (4° C.) for 2 months. Three days after transfer to room temperature (RT), tuber pieces were cut with a knife containing at least one active meristem (eye). Cut pieces originating from 3-10 tubers per line were washed for 15 min in tap water. Approximately 6-10 pieces were subsequently incubated for 10 min on either water or on a 1, 10 or 1000 ppm solution of gibberellic acid (GA3, SIGMA, Zwijndrecht, Netherlands). All pieces from one treatment were transferred to containers onto wet paper tissue and covered with a plastic top to prevent drying out.

Q: `C=C1C[C@]23C[C@@]1(O)CC[C@H]2[C@@]12C=C[C@H](O)[C@@](C)(C(=O)O1)[C@H]2[C@@H]3C(=O)O` [GA3, gibberellic acid] was tested. Which “time until sprouting occurred” value (tps tuber pieces) did it give?
A: ≤ 4 days

Q: What about the “time until sprouting occurred” value (wild-type tuber pieces) of the same molecule?
A: ≤ 4 days
